System: human serum protein
Experiment: Human serum protein binding measurement
Format: in vitro ADME
Settings: compared with NO2A compound
Method: The labeling compounds were cultured in human serum (1 mL) at 37° C. for 10 min and 60 min, and loaded to PD-10 column (pre-conditioned with 1 mL of 1% BSA/0.1 M DTPA), swept under stream of PBS into 30 test tubes by 0.5 mL fractions each. The radioactivity of each test tube was measured with gamma counter, and […] of sample was collected from the respective test tubes. After impression on the paper filter and staining with Coomassie blue, the protein peaks were observed. By plotting a curve of radioactivity of the respective fractions and calculating protein binding percent, the result was obtained as shown in Table 3.

SMILES: O=C(O)CCCN1CCN(CC(=O)O)CCN(CC(=O)O)CC1 [Example 1, 4,7-bis(carboxymethyl)-1,4,7-triazonane-1-butyric acid]
- binding to human serum protein relative to NO2A compound: three times higher
